Reference: PubChem BioAssay (NCI)
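Grown in 96-well plates, cells were treated for 48 hours with each compound at five concentrations. Insufficient inhibition: endpoint recorded as highest concentration tested. GI50 = concentration required for 50% inhibition of growth. TGI is the concentration that stops growth completely.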

Assays:
Assay in all cases: growth of human tumour cells (NCI), 48 h
A498 renal = tested on: A498 renal
LOX IMVI melanoma = tested on: LOX IMVI melanoma
NCI-H522 lung = tested on: NCI-H522 lung
M14 melanoma = tested on: M14 melanoma
HCC-2998 colon = tested on: HCC-2998 colon
SNB-19 CNS = tested on: SNB-19 CNS
NCI-H460 lung = tested on: NCI-H460 lung
UO-31 renal = tested on: UO-31 renal
MCF7 breast = tested on: MCF7 breast
PC-3 prostate = tested on: PC-3 prostate

Row | Compound | TGI (A498 renal) | TGI (LOX IMVI melanoma) | TGI (NCI-H522 lung) | TGI (M14 melanoma) | TGI (HCC-2998 colon) | TGI (SNB-19 CNS) | TGI (NCI-H460 lung) | TGI (UO-31 renal) | GI50 (MCF7 breast) | TGI (MCF7 breast) | GI50 (PC-3 prostate) | TGI (PC-3 prostate) | GI50 (A498 renal) | GI50 (NCI-H522 lung) | GI50 (M14 melanoma) | GI50 (HCC-2998 colon) | GI50 (SNB-19 CNS) | GI50 (NCI-H460 lung) | GI50 (UO-31 renal) | GI50 (LOX IMVI melanoma)
1 | C1CCN(c2nc(=[N+]3CCCCC3)ss2)CC1 | > 100 µM | > 100 µM | > 100 µM | > 100 µM | > 100 µM | > 100 µM | > 100 µM | > 100 µM |  |  |  |  |  |  |  |  |  |  |  | 
2 | COc1cc2c3c(n(CCCI)c(=O)c2cc1OC)-c1cc2c(cc1C3=O)OCO2 | > 100 µM |  | > 100 µM | > 100 µM | > 100 µM | > 100 µM | > 100 µM | > 100 µM | 0.404 µM | 6.01 µM | > 100 µM | > 100 µM | 6.79 µM | 8.32 µM | 3.05 µM | 5.61 µM | > 100 µM | 0.272 µM | 2.53 µM | 
3 | COC(=O)CCC(=O)CC(=O)C(=O)Nc1c(Cl)cc([N+](=O)[O-])cc1Cl | > 100 µM | > 100 µM | > 100 µM | > 100 µM | > 100 µM | > 100 µM | > 100 µM | > 100 µM |  |  |  |  |  |  |  |  |  |  |  | 
4 | CN(C)c1ccc(Nc2cc(-c3cccc(OC(F)(F)F)c3)nc3ccc(N4CCCC4)cc23)cc1 | 10.6 µM | 3.25 µM | 4.73 µM | 3.32 µM | 3.36 µM | 13.7 µM | 3.66 µM | 3.17 µM | 1.86 µM | 4.61 µM |  |  | 2.47 µM | 2.03 µM | 1.7 µM | 1.85 µM | 3.32 µM | 1.92 µM | 1.77 µM | 1.73 µM
5 | COCCCNC(=O)CC(=O)NCCCOC | > 100 µM |  | > 100 µM | > 100 µM | > 100 µM | > 100 µM | > 100 µM | > 100 µM |  |  |  |  |  |  |  |  |  |  |  | 
6 | c1cc(CNCCN2CCNCC2)ccn1 | > 100 µM | > 100 µM | > 100 µM | > 100 µM |  | > 100 µM | > 100 µM | > 100 µM |  | > 100 µM |  | > 100 µM |  |  |  |  |  |  |  | 
7 | O=C1C2C3C=CC(C2C(=O)N1COP(=O)(O)O)C1C2C(=O)N(COP(=O)(O)O)C(=O)C2C31 (centres undefined) | > 100 µM | > 64.1 µM | > 100 µM | > 100 µM | > 100 µM | > 100 µM | > 59.5 µM | > 100 µM |  |  |  |  |  |  |  |  |  |  |  | 
8 | CCCCCCCCCc1cccc(N2C(N)=NC(N)=NC2(C)C)c1 | 16.7 µM |  |  | 1.53 µM |  |  | > 100 µM | > 42.4 µM |  | > 100 µM |  | > 35.7 µM |  |  |  |  |  |  |  | 
9 | CCCCCCCCCCCCCP(=O)(O)OCC | > 100 µM | > 100 µM | > 100 µM | > 100 µM | > 100 µM | > 100 µM | > 100 µM | > 100 µM |  |  |  |  |  |  |  |  |  |  |  | 
10 | O=C(O)/C(=C/C=C/c1ccccc1)c1csc(-c2nc(/C(=C\C=C\c3ccccc3)C(=O)O)cs2)n1 | > 100 µM | > 100 µM |  | 61 µM | 59.7 µM | 58.1 µM | > 100 µM | 59.6 µM |  |  |  |  |  |  |  |  |  |  |  | 
11 | CN1CCN(c2ccc3nc(-c4ccc5nc(-c6ccc(OCCC(C)(C)C)cc6)[nH]c5c4)[nH]c3c2)CC1 | 35.1 µM |  | 38.1 µM | 6.53 µM | 18.5 µM | 4.09 µM | 3.97 µM | 41.8 µM |  |  | 2.63 µM | 5.81 µM | 17.5 µM | 13.6 µM | 2.39 µM | 5.06 µM | 2.15 µM | 2.13 µM | 21.3 µM | 
12 | C=C(Br)N(CC)CC | > 100 µM | > 100 µM | > 100 µM | > 100 µM | > 100 µM | > 100 µM | > 100 µM | > 100 µM |  |  |  |  |  |  |  |  |  |  |  | 
13 | NCCCNCCCCN(CCCN)/[N+]([O-])=N\O |  |  |  | > 100 µM | > 100 µM | > 100 µM | > 100 µM | > 100 µM |  |  |  |  |  |  |  |  |  |  |  | 
14 | O=C1c2ccccc2C(=O)c2c1ccc(C1C(=O)c3ccccc3C1=O)c2-c1c(C2C(=O)c3ccccc3C2=O)ccc2c1C(=O)c1ccccc1C2=O | > 100 µM | > 100 µM | > 100 µM | > 100 µM |  | > 100 µM | > 100 µM | > 100 µM |  | > 100 µM |  | > 100 µM |  |  |  |  |  |  |  | 
15 | O=C(O)c1cccc(N=Nc2c(S(=O)(=O)O)ccc3c2C(=O)c2ccccc2C3=O)c1O | > 100 µM | > 100 µM | > 100 µM | > 100 µM |  | > 100 µM | > 100 µM | > 100 µM |  | > 100 µM |  | > 100 µM |  |  |  |  |  |  |  | 
16 | C[C@]1(CO)CCC[C@@]2(C)C1CC[C@H]1CC3C[C@]12CC[C@]3(C)O (some centres undefined) |  | > 100 µM | 31.1 µM | > 100 µM | > 100 µM | > 100 µM | 36.8 µM |  |  |  |  |  |  |  |  |  |  |  |  | 
17 | Clc1ccc(C2SCc3nc4ccccc4n32)cc1Cl (centres undefined) |  | 25.7 µM | 25 µM | 27.2 µM |  | 22.4 µM | 28.1 µM |  |  |  |  |  |  |  |  |  |  |  |  | 
18 | CCc1cccc(C(C)C)c1N1C(=O)C(=O)C(c2nc3ccccc3s2)C(=O)C1=O | > 50 µM | > 50 µM | 48.6 µM | > 50 µM | > 50 µM | > 50 µM | > 50 µM | > 50 µM |  |  |  |  |  |  |  |  |  |  |  | 
19 | COc1cc2c3c(c1OC)-c1c(ccc4c1OCO4)CC3(C#N)N(C(=O)c1ccccc1)CC2 (centres undefined) | > 100 µM | > 100 µM | > 100 µM | > 100 µM |  | > 100 µM | > 100 µM | > 100 µM |  |  |  |  |  |  |  |  |  |  |  | 
20 | COc1ccc(Nc2c3ccccc3nc3ccccc23)cc1 | 10.5 µM | 4.81 µM | 15.7 µM | 13.6 µM | 11.2 µM | 18.3 µM | 6.2 µM | 5.27 µM | 0.409 µM | 13 µM |  |  | 0.421 µM | 1.13 µM | 0.735 µM | 1.92 µM | 3.19 µM | 0.479 µM | 1.21 µM | 0.984 µM
21 | CCC1CN2CCc3c([nH]c4ccccc34)C2C[C@@H]1CC(=O)N(C)C (some centres undefined) | > 100 µM | > 100 µM | > 100 µM | > 100 µM | > 100 µM | > 100 µM | > 100 µM | > 100 µM |  |  |  |  |  |  |  |  |  |  |  | 
22 | Cc1cc(C)nc(NS(=O)(=O)c2ccc(Nc3c4ccc(Cl)cc4nc4c(C(=O)Nc5ccc(S(N)(=O)=O)cc5)cccc34)cc2)n1 | 32.6 µM | 34.8 µM | 24.1 µM | 34.7 µM | 30.9 µM | 93.9 µM | 60.8 µM | 39.2 µM |  |  |  |  |  |  |  |  |  |  |  | 
